Experiments:
[1] = Feed conversion ratio of a farm animal (general statement); type: in vivo; conditions: administered to a farm animal
[2] = Trial in calves: live weight, average daily gain, feed intake, feed conversion ratio (12 weeks); type: in vivo, Holstein Friesian calves
Excerpt: Holstein Friesian calves (2- to 3-week-old, 95% male) were transported from different farms to the experimental facility of Denkavit (Voorthuizen, The Netherlands) where the animals were reared. The calves were randomly and gender-equally divided in four groups based on experimental calf milk replacer (CMR): group A (placebo—standard CMR powder of the farm), group B (standard CMR powder supplemented with 0.005% dry wt. 2′FL), group C (standard CMR powder supplemented with 0.025% dry wt. 3′SL and 0.015% w/w 6′SL) and group D (standard CMR powder supplemented with 0.005% dry wt. 2′FL, 0.025% dry wt. 3′SL and 0.015% dry wt. 6′SL). The calf milk replacer was administered as a liquid to the calves (water was added to the CMR powder to obtain 150 grams CMR powder per liter liquid CMR). Each group involved 100 calves, assigned into four rows (25 calves per row) of two compartment blocks. Each row contained five pens, where four to six calves were living in one pen.
Starting from the day of arrival, calves received standard calf milk replacer (CMR) during a period of 9 weeks. Group A only received the CMR, while the CMR supplied to groups B, C and D was supplemented with MMOs as outlined in the section titled “Animals.” Calf starter (concentrates) and straw were introduced gradually from day 6 till the end of the experiment (12 weeks) while calves had access to corn silage at week 11 and 12. Feeds were provided ad libitum to calves twice a day in the morning and evening and were daily recorded based on rows (concentrates, straw, corn silage) or groups (CMR) consumption.
Calves were followed up by the farm staff since arrival until 12 weeks. Fecal consistency in scale 1-4 (Larson et al., 1977, J. Dairy Science, 60(6): p. 989-991) was recorded daily for the first ten days since arrival. Number of mortalities and signs of adverse effects were registered daily. The animals were treated prophylactically or metaphylactically (herd treatment) with 1 g oxytetracycline 100% (at day 4), 0.5 g Doxylin 50% WSP and 0.8 g Bromhexine 2% (at day 13), and 3.1 ml Tilmicosol 250 mg/ml (at day 24) to prevent and/or treat acute lung inflammation. Individual treatments were followed by remarks of the farm staff and diagnostics of farm veterinary practitioners. Disease incidences and medicinal usage based on individual treatments were recorded to compare between treatment groups. The incidence of diarrhea was 0% in all groups at the start of the study, and 1% (%; group A), 0% (group B), 1% (group C) and 2% (group D) after 12 weeks. Live weight of the animals was monitored at arrival (d1), two weeks (W2), six weeks (W6), ten weeks (W10) and 12 weeks (W12) since arrival. Feed conversion ratio (FCR) of each period was computed based on the input of daily weight gain and daily feed intake.
Prior to analysis, the data of live weight and FCR were checked for outliers. A data point was considered an outlier if it could reasonably be expected that observed trail results were due to other factors than the treatment, e.g., due to sickness. An ANCOVA model as below was used to analyze the live weight data (R version 4.1.2.).
Differences among means with P<0.05 were accepted as significant. Differences among means with 0.05<P<0.10 were accepted as tendency. Multiple comparisons were done with Tukey.
Other performance data were analyzed using a mixed linear model using treatments as fixed and Row as random term using 1me in the nlme package.

## 2′-fucosyllactose [2′FL]
[1]
  decrease of the feed conversion ratio: strong decrease
[2]; W 0 (arrival), mean ± SD
  Live weight: 45.6 ± 2.8 kg
[2]; W 0-W 2
  Feed conversion ratio (FCR): 1.34
[2]; W 0-W 2, mean ± SD
  Average daily gain: 600.1 ± 155.0 g/day
[2]; W 0-W 6
  Feed conversion ratio (FCR): 1.53
[2]; W 0-W 10
  Feed conversion ratio (FCR): 2.01
[2]; W 0-W 12
  Feed conversion ratio (FCR): 2.28
[2]; W 0-W 12, mean ± SD
  Average daily gain: 1099.5 ± 141.7 g/day
[2]; W 2, mean ± SD
  Live weight: 54.0 ± 3.3 kg
[2]; W 2-W 6
  Feed conversion ratio (FCR): 1.67
[2]; W 2-W 6, mean ± SD
  Average daily gain: 954.9 ± 176.8 g/day
[2]; W 6, mean ± SD
  Live weight: 80.7 ± 7.1 kg
[2]; W 6-W 10
  Feed conversion ratio (FCR): 2.51
[2]; W 6-W 10, mean ± SD
  Average daily gain: 1267.9 ± 202.2 g/day
[2]; W 6-W 12
  Feed conversion ratio (FCR): 2.76
[2]; W 10, mean ± SD
  Live weight: 116.2 ± 11.0 kg
[2]; W 10-W 12
  Feed conversion ratio (FCR): 3.44
[2]; W 10-W 12, mean ± SD
  Average daily gain: 1484.6 ± 260.7 g/day
[2]; W 12, mean ± SD
  Live weight: 136.8 ± 12.7 kg
[2]; calf milk replacer, 12 weeks trial
  Average feed intake, CMR: 42.3 kg
[2]; concentrates, 12 weeks trial, mean ± SD
  Average feed intake, Concentrates: 131.6 ± 6.2 kg
[2]; corn silage, mean ± SD
  Average feed intake, Corn silage: 14.8 ± 1.3 kg
[2]; straw, 12 weeks trial, mean ± SD
  Average feed intake, Straw: 16.0 ± 0.8 kg

Source: US20260294946A1, “METHOD TO REDUCE FEED CONVERSION RATIO IN A FARMED ANIMAL” (Inbiose N.V., priority 2023, published 2026)
